Measurements published in ChEMBL document CHEMBL1862790, “Optimisation of fenarimol series for the treatment of Chagas disease”.

Experiments:
Trypanosoma cruzi [1] = assay: microbe, parasite or virus in culture; format: functional, organism-based, Tulahuen LacZ, Clone C4
L6 = assay: DNDI: Cytotoxicity against L-6 rat myoblasts from skeletal muscle cells; conditions: L6 rat skeletal muscle myoblast cells
Trypanosoma cruzi [2] = assay: microbe, parasite or virus in culture; format: functional, Tulahuen LacZ, Clone C4
[3] = Trypanosoma cruzi, Tulahuen LacZ, Clone C4

IC50 (Trypanosoma cruzi [1]; [3]) [µM] | IC90 (Trypanosoma cruzi [2]; [3]) [µM] | IC50 (Trypanosoma cruzi [1]) [µM] | IC90 (Trypanosoma cruzi [2]) [µM] | SMILES | IC50 (L6) [µM]
0.0085 | 0.039 |  |  | O=S(=O)(c1ccccc1)N1CCN(C(c2ccc(Cl)cc2)c2cccnc2)CC1 (stereo not given) | 42.7
0.078 | 0.27 |  |  | Fc1cc(Cl)ccc1C(c1cncnc1)N1CCN(c2ccccc2)CC1 (stereo not given) | 62.7
0.024 | 0.097 |  |  | O=S(=O)(c1ccc(Cl)cc1)N1CCN(C(c2ccc(Cl)cc2)c2cccnc2)CC1 (stereo not given) | 23
0.606 | 1.32 |  |  | CC(C)CNC(c1ccc(Cl)cc1)(c1cccnc1)c1ccccc1Cl (stereo not given) | 59.2
0.006 | 0.028 |  |  | CN(C)c1ccc(C(O)(c2ccc(C(F)(F)F)cc2)c2cccnc2)cc1 (stereo not given) | 59.1
0.026 | 0.092 |  |  | Fc1cc(Cl)ccc1C(c1cccnc1)N1CCN(c2ncccn2)CC1 (stereo not given) | 59
0.065 | 0.19 |  |  | COc1ccccc1N1CCN(C(c2cncnc2)c2ccc(Cl)cc2F)CC1 (stereo not given) | 59.8
 |  | 0.25 | 0.86 | O=C(C1CCCCC1)N1CCC(NC(c2ccc(C(F)(F)F)cc2)c2cnccn2)CC1 (stereo not given) | 92.4
0.01 | 0.03 |  |  | O=C(Nc1ccc(Cl)cc1)N1CCN(C(c2cncnc2)c2ccc(Cl)cc2F)CC1 (stereo not given) | 33.6
0.068 | 0.16 |  |  | O=C(c1ccccc1)N1CCN(C(c2ccc(Cl)cc2)c2cccnc2)CC1 (stereo not given) | 61.4
0.0077 | > 0.01 |  |  | CC(C)Oc1ncc(C(O)(c2cccnc2)c2ccc(Cl)cc2F)cn1 (stereo not given) | 89.5
0.02 | 0.042 |  |  | COc1ccccc1N1CCN(C(c2ccc(Cl)cc2)c2cccnc2)CC1 (stereo not given) | 61.1
0.009 | 0.034 |  |  | O=C(Nc1ccccc1)N1CCN(C(c2ccc(Cl)cc2)c2cccnc2)CC1 (stereo not given) | 67.2
0.02 | 0.094 |  |  | CC(C)(C)OC(=O)N1CCN(C(c2cccnc2)c2ccc(Cl)cc2F)CC1 (stereo not given) | 43.5
0.017 | 0.088 |  |  | CC(C)C(=O)Nc1ncc(C(O)(c2ccc(Cl)cc2)c2cccnc2)s1 (stereo not given) | 56.6
0.144 | 0.46 |  |  | OC(c1ccc(Cl)cc1)(c1ccc(Br)cc1)c1cncnc1 (stereo not given) | 58.7
0.0062 | 0.024 |  |  | O=C(Nc1ccccc1)N1CCN(C(c2cccnc2)c2ccc(Cl)cc2F)CC1 (stereo not given) | 45.1
0.0065 | 0.016 |  |  | CC(C)c1ccc(NC(=O)N2CCN(C(c3cncnc3)c3ccc(Cl)cc3F)CC2)cc1 (stereo not given) | 61.9
0.24 | 0.42 |  |  | COc1ccccc1N1CCN(C(c2ccc(C(F)(F)F)cc2)c2cnccn2)CC1 (stereo not given) | 61.7
0.028 | 0.09 |  |  | COc1ccccc1N1CCN(C(c2ccc(OC(C)C)cc2)c2cccnc2)CC1 (stereo not given) | 77.5
0.07 | 0.22 |  |  | O=C(c1ccccc1)N1CCN(C(c2cccnc2)c2ccc(Cl)cc2F)CC1 (stereo not given) | 68.6

SMILES | IC50 (Trypanosoma cruzi [1]; [3]) [µM] | IC90 (Trypanosoma cruzi [2]; [3]) [µM] | IC50 (Trypanosoma cruzi [1]) [µM] | IC90 (Trypanosoma cruzi [2]) [µM] | IC50 (L6) [µM]
OC(c1ccc(Cl)cc1)(c1ccc(Cl)cc1)c1cccnc1 | 0.09 | 27 |  |  | 49
Cc1ccc(C(O)(c2ccc(Cl)cc2)c2cccnc2)cc1 (stereo not given) | 0.017 | 0.06 |  |  | 61.2
OC(c1ccc(Cl)cc1)(c1cccnc1)c1ccc(C(F)(F)F)cc1F (stereo not given) | 0.021 | 0.07 |  |  | 57.4
OC(c1ccc(C(F)(F)F)cc1)(c1ccc(C(F)(F)F)cc1)c1cccnc1 | 0.0149 | 0.038 |  |  | 50.6
O=C(Oc1ccccc1)N1CCN(C(c2cccnc2)c2ccc(Cl)cc2F)CC1 (stereo not given) | 0.0045 | 0.012 |  |  | 59.1
OC(c1cccnc1)(c1ccc(Cl)cc1F)c1ccc(Cl)cc1F | 0.016 | 0.036 |  |  | 56.3
COc1ccc(C(O)(c2ccc(Cl)cc2)c2cccnc2)cc1 (stereo not given) | 0.04 | 0.18 |  |  | 68.1
OC(c1ccc(Cl)cc1)(c1ccc(Br)cc1)c1cccnc1 (stereo not given) | 0.031 | 0.079 |  |  | 57
CC(C)Oc1ccc(C(O)(c2ccc(C(F)(F)F)cc2)c2cccnc2)cc1 (stereo not given) | 0.00373 | 0.007 |  |  | 47.6
OC(c1ccc(Cl)cc1)(c1cccnc1)c1cccc(Br)c1 (stereo not given) | 0.054 | 0.08 |  |  | 54.1
OC(c1ccc(Cl)cc1)(c1ccc(C(F)(F)F)cc1)c1cccnc1 (stereo not given) | 0.0082 | 0.03 |  |  | 56.4
OC(c1ccc(Cl)cc1)(c1cccnc1)c1ccccc1Br (stereo not given) | 0.076 | 0.172 |  |  | 55.2
OC(c1ccc(Br)cc1)(c1ccc(C(F)(F)F)cc1)c1cccnc1 (stereo not given) | 0.02 | 0.03 |  |  | 54.7
Clc1ccc(C(c2cccnc2)c2ccccc2Cl)cc1 (stereo not given) | 0.23 | 2.57 |  |  | 62.6
